{"source": "PubChem BioAssay AID248", "about": "(DTP/NCI, 2004)", "tested_on": "L1210 leukemia ip in BDF1 mice, survival T/C", "experiment": "NCI In Vivo Anticancer Drug Screen. Data for tumor model L1210 Leukemia (intraperitoneal) in B6D2F1 (BDF1) mice", "conditions": "higher = longer survival", "in_short": "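Antitumor effect is assessed in tumor-bearing animals. Survival in the compound arm is compared with a vehicle-dosed control arm and expressed as their quotient.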", "note": "Toxic doses and inconclusive results are not listed.", "data": [{"smiles": "COC(COC(N)=O)C1=C(N2CC2)C(=O)C(C)=C(N2CC2)C1=O", "note": "(stereo not given)", "values": [{"measurement": "T/C", "setting": "endpoint: mean survival time, dose: 0.03 mg/kg/injection, schedule: Q01DX Z (ip), vehicle: saline", "value": "107 % of control"}, {"measurement": "T/C", "setting": "endpoint: mean survival time, dose: 0.06 mg/kg/injection, schedule: Q01DX Z (ip), vehicle: saline", "value": "115 % of control"}, {"measurement": "T/C", "setting": "endpoint: mean survival time, dose: 0.12 mg/kg/injection, schedule: Q01DX009 (ip), vehicle: Klucel (hydroxypropylcellulose) (HPC)", "value": "158 % of control"}, {"measurement": "T/C", "setting": "endpoint: mean survival time, dose: 0.12 mg/kg/injection, schedule: Q01DX Z (ip), vehicle: saline", "value": "115 % of control"}, {"measurement": "T/C", "setting": "endpoint: mean survival time, dose: 0.25 mg/kg/injection, schedule: Q01DX009 (ip), vehicle: Klucel (hydroxypropylcellulose) (HPC)", "value": "113 % of control"}, {"measurement": "T/C", "setting": "endpoint: mean survival time, dose: 0.25 mg/kg/injection, schedule: Q01DX Z (ip), vehicle: saline", "value": "159 % of control"}, {"measurement": "T/C", "setting": "endpoint: mean survival time, dose: 0.5 mg/kg/injection, schedule: Q01DX009 (ip), vehicle: saline", "value": "207 % of control"}, {"measurement": "T/C", "setting": "endpoint: mean survival time, dose: 0.5 mg/kg/injection, schedule: Q01DX Z (ip), vehicle: saline", "value": "157 % of control"}, {"measurement": "T/C", "setting": "endpoint: mean survival time, dose: 0.5 mg/kg/injection, schedule: Q04DX003 (ip), vehicle: Klucel (hydroxypropylcellulose) (HPC)", "value": "194 % of control"}, {"measurement": "T/C", "setting": "endpoint: mean survival time, dose: 0.5 mg/kg/injection, schedule: Q04DX003 (ip), vehicle: saline", "value": "172 % of control"}, {"measurement": "T/C", "setting": "endpoint: mean survival time, dose: 0.5 mg/kg/injection, schedule: Q08DX002 (ip), vehicle: saline", "value": "160 % of control"}, {"measurement": "T/C", "setting": "endpoint: mean survival time, dose: 1.0 mg/kg/injection, schedule: Q01DX001 (ip), vehicle: saline with Tween-80", "value": "166 % of control"}, {"measurement": "T/C", "setting": "endpoint: mean survival time, dose: 1.0 mg/kg/injection, schedule: Q01DX001 (ip), vehicle: saline", "value": "171 % of control"}, {"measurement": "T/C", "setting": "endpoint: mean survival time, dose: 1.0 mg/kg/injection, schedule: Q01DX009 (ip), vehicle: saline", "value": "201 % of control"}, {"measurement": "T/C", "setting": "endpoint: mean survival time, dose: 1.0 mg/kg/injection, schedule: Q01DX Z (ip), vehicle: saline", "value": "90 % of control"}, {"measurement": "T/C", "setting": "endpoint: mean survival time, dose: 1.0 mg/kg/injection, schedule: Q04DX003 (ip), vehicle: saline", "value": "188 % of control"}, {"measurement": "T/C", "setting": "endpoint: mean survival time, dose: 1.0 mg/kg/injection, schedule: Q08DX002 (ip), vehicle: saline", "value": "233 % of control"}, {"measurement": "T/C", "setting": "endpoint: mean survival time, dose: 2.0 mg/kg/injection, schedule: Q01DX001 (ip), vehicle: saline with Tween-80", "value": "288 % of control"}, {"measurement": "T/C", "setting": "endpoint: mean survival time, dose: 2.0 mg/kg/injection, schedule: Q01DX001 (ip), vehicle: saline", "value": "360 % of control"}, {"measurement": "T/C", "setting": "endpoint: mean survival time, dose: 2.0 mg/kg/injection, schedule: Q01DX009 (ip), vehicle: Klucel (hydroxypropylcellulose) (HPC)", "value": "92 % of control"}, {"measurement": "T/C", "setting": "endpoint: mean survival time, dose: 2.0 mg/kg/injection, schedule: Q04DX003 (ip), vehicle: Klucel (hydroxypropylcellulose) (HPC)", "value": "98 % of control"}, {"measurement": "T/C", "setting": "endpoint: mean survival time, dose: 2.0 mg/kg/injection, schedule: Q04DX003 (ip), vehicle: saline", "value": "105 % of control"}, {"measurement": "T/C", "setting": "endpoint: mean survival time, dose: 2.0 mg/kg/injection, schedule: Q08DX002 (ip), vehicle: saline", "value": "159 % of control"}, {"measurement": "T/C", "setting": "endpoint: mean survival time, dose: 4.0 mg/kg/injection, schedule: Q01DX001 (ip), vehicle: saline with Tween-80", "value": "90 % of control"}, {"measurement": "T/C", "setting": "endpoint: median survival time, dose: 0.5 mg/kg/injection, schedule: Q01DX001 (ip), vehicle: saline", "value": "100 % of control"}, {"measurement": "T/C", "setting": "endpoint: median survival time, dose: 1.0 mg/kg/injection, schedule: Q01DX001 (ip), vehicle: saline", "value": "109 % of control"}, {"measurement": "T/C", "setting": "endpoint: median survival time, dose: 2.0 mg/kg/injection, schedule: Q01DX001 (ip), vehicle: saline", "value": "114 % of control"}]}, {"smiles": "O=C(/C=C/c1ccco1)c1ccc(Cl)cc1", "values": [{"measurement": "T/C", "setting": "endpoint: mean survival time, dose: 100.0 mg/kg/injection, schedule: Q01DX009 (ip), vehicle: saline sonified", "value": "91 % of control"}, {"measurement": "T/C", "setting": "endpoint: mean survival time, dose: 200.0 mg/kg/injection, schedule: Q01DX009 (ip), vehicle: saline sonified", "value": "104 % of control"}, {"measurement": "T/C", "setting": "endpoint: mean survival time, dose: 400.0 mg/kg/injection, schedule: Q01DX009 (ip), vehicle: saline sonified", "value": "94 % of control"}]}, {"smiles": "[Cl][Rh][Cl].[NH-]c1nccs1.[NH-]c1nccs1.[NH-]c1nccs1.[NH-]c1nccs1", "values": [{"measurement": "T/C", "setting": "endpoint: mean survival time, dose: 3.13 mg/kg/injection, schedule: Q04DX003 (ip), vehicle: distilled water + Tween-80", "value": "103 % of control"}, {"measurement": "T/C", "setting": "endpoint: mean survival time, dose: 6.25 mg/kg/injection, schedule: Q04DX003 (ip), vehicle: distilled water + Tween-80", "value": "96 % of control"}, {"measurement": "T/C", "setting": "endpoint: mean survival time, dose: 12.5 mg/kg/injection, schedule: Q04DX003 (ip), vehicle: distilled water + Tween-80", "value": "97 % of control"}, {"measurement": "T/C", "setting": "endpoint: mean survival time, dose: 25.0 mg/kg/injection, schedule: Q04DX003 (ip), vehicle: distilled water + Tween-80", "value": "96 % of control"}, {"measurement": "T/C", "setting": "endpoint: mean survival time, dose: 50.0 mg/kg/injection, schedule: Q04DX003 (ip), vehicle: distilled water + Tween-80", "value": "103 % of control"}, {"measurement": "T/C", "setting": "endpoint: mean survival time, dose: 100.0 mg/kg/injection, schedule: Q04DX003 (ip), vehicle: distilled water + Tween-80", "value": "102 % of control"}, {"measurement": "T/C", "setting": "endpoint: mean survival time, dose: 200.0 mg/kg/injection, schedule: Q04DX003 (ip), vehicle: distilled water + Tween-80", "value": "103 % of control"}]}, {"smiles": "Cc1c(Cl)cccc1NC(=O)OC(C)C", "values": [{"measurement": "T/C", "setting": "endpoint: mean survival time, dose: 100.0 mg/kg/injection, schedule: Q04DX003 (ip), vehicle: Klucel (hydroxypropylcellulose) (HPC)", "value": "106 % of control"}, {"measurement": "T/C", "setting": "endpoint: mean survival time, dose: 200.0 mg/kg/injection, schedule: Q04DX003 (ip), vehicle: Klucel (hydroxypropylcellulose) (HPC)", "value": "97 % of control"}, {"measurement": "T/C", "setting": "endpoint: mean survival time, dose: 400.0 mg/kg/injection, schedule: Q04DX003 (ip), vehicle: Klucel (hydroxypropylcellulose) (HPC)", "value": "97 % of control"}]}]}
